Values quoted from earlier work, collected in patent US7129249B2, “Heterocyclic amide derivatives as inhibitors of glycogen phoshorylase” (AstraZeneca AB, priority 2002, dated 2006).

How the values were obtained:
db/db and ob/ob mice = db/db and ob/ob mice following treatment
conscious dogs = details: following a glucagon challenge

O=C(N[C@@H](Cc1ccc(F)cc1)C(=O)N1CCC(O)CC1)c1cc2cc(Cl)ccc2[nH]1 [CP320626]
glucagon stimulated glycogenolysis (hepatocytes): reduce
glucose output (hepatocytes): reduce
plasma glucose concentration (db/db and ob/ob mice): reduced, in a dose related manner

CN(C)C(=O)[C@H](O)[C@H](Cc1ccccc1)NC(=O)c1cc2cc(Cl)ccc2[nH]1 [CP91149]
glucagon stimulated glycogenolysis (hepatocytes): reduce
glucose output (hepatocytes): reduce
plasma glucose concentration (db/db and ob/ob mice): reduced, in a dose related manner

CCN1C(C)=C(C(=O)OC(C)C)C(c2ccccc2Cl)C2=C1COC2=O (centres unmarked) [Bay R 3401]
arterial plasma glucose (conscious dogs): reduced significantly
hepatic glucose output (conscious dogs): reduced significantly
